# Experimental data taken from patent US20150231069A1, “ORAL FORMULATIONS OF CHEMOTHERAPEUTIC AGENTS” (priority 2014, published 2015).
# Like-named read-outs stand apart in the source and are kept apart here.
# Legend:
# [1] = Human clinical bioavailability study, oral versus i.v. paclitaxel; assay type: in vivo
# Method: An open label, two-treatment, single dose, two-period, cross-over, […] Paclitaxel BMS formulation (175 mg) in 11 patients (male or female) suffering from solid tumors, cancers and malignancies refractory to standard therapy were treated under fasting condition.
# In this part of the study, the oral course and IV course were randomized. […]
# The IV formulation of paclitaxel ([…]; Rhône-Poulenc Rorer/Aventis, Antony, France) was used for both IV and oral administration of the agent. One hour before oral paclitaxel administration, patients received 1 mg of oral granisetron and oral CsA capsules (500 mg). Patients who completed the first course of oral paclitaxel were eligible to receive IV paclitaxel.
# Pharmacokinetic monitoring was performed during course i.v. and oral paclitaxel administration. For plasma paclitaxel and metabolite concentrations, blood samples of 5 mL each were collected in heparinized tubes. After oral administration, blood samples were obtained before dosing, at time 0 min and then 15, 30, 45, 60, 75, 90 minutes, and 2, 3, 4, 7, 10, 24, 30, and 48 h after paclitaxel ingestion. […] After centrifugation, the plasma was transferred to a polypropylene storage tube and stored at −20° C. until analyzed. Paclitaxel and metabolite concentrations in plasma were determined using a validated high-performance liquid chromatography (HPLC) assay.
# [2] = female, C57BL6, mouse, in vivo
# Method: One set of experiments was performed in 21 female C57BL6 mice, 8 weeks of age. They were housed and handled according to institutional guidelines. Food and water were given ad libitum. All of the animal experiments were performed in full compliance with a protocol approved by the University Animal Use Committee.
# For the oral treatment with paclitaxel (with or without delivery system), 10 mg per gram body weight of inventive formulation was administered by gavage under light diethyl ether anesthesia. Blood samples were collected at, 0, 15 min, 30 min, 1 h, 2 h, 4 h, 8 h, 12 h, and 16 h after drug administration of the oral formulation.
# An i.v. formulation of paclitaxel 40 mg/kg was injected into a tail vein under light diethyl ether anesthesia at a dosage of 10 mg per gram body weight. Blood samples were collected at 0, 15 min, 30 min, 1 h, 2 h, 4 h, 8 h, 12 h, and 16 h after IV administration of paclitaxel.
# Blood samples were analyzed with a pre-calibrated, validated HPLC method using HPLC Equipment. […] The solvent eluent was monitored using a Varian UV-Visible spectro-photometric detector set at 227 nm. […]
# Paclitaxel quantitation was based on standard curves of the peak area and ratios of known amounts of paclitaxel to the internal standard peak from a paclitaxel internal standard. […]
# [3] = female, FVB wild-type, mouse, in vivo
# Method: Another set of experiments were performed with female FVB wild-type mice between 9 weeks and 16 weeks of age. Mice were housed and handed according to institutional guidelines.
# For oral treatment with paclitaxel, with or without the inventive delivery system, 10 mg per g body weight of formulation was administered by gavage under light diethyl ether anesthesia. Blood samples were collected at 0, 15 min, 30 min, 1 h, 2 h, 4 h, 8 h, 12 h, and 16 h after oral administration.
# For intravenous administration, 10 mg per g body weight of an i.v. formulation of paclitaxel was injected into a tail vein under light diethyl ether anesthesia. Blood samples were collected at 0, 15 min, 30 min, 1 h, 2 h, 4 h, 8 h, 12 h, and 16 h after i.v. administration.
# Paclitaxel quantitation was based on the HPLC standard curves of the peak area and ratios of known amounts of paclitaxel to the internal standard peak from paclitaxel internal standard.
# MCF-7 cells = assay: Cytotoxicity against MCF-7 cell growth; assay type: cell-based, human
# Method: The cellular uptake of non-targeted and folic acid (FA)-targeted tumor has affinity for folic acid (breast, tumor, ovarian tumors) microbeads as prepared above was evaluated in human breast carcinoma cell, MCF-7. The microbeads are made specifically to be retained by the tumor sites and tumors have affinity toward the drug and conjugate. To investigate the effect of time on the FA-targeted microbead uptake by FR-bearing cells, […]. MCF-7 cells were incubated with free rhodamine B (free R-B), plain micellar rhodamine B (DOMC/R-B) and FA-micellar rhodamine B (DOMC-FA/R-B) for various periods and visualized using fluorescence microscopy. The cytotoxicity of paclitaxel (PTX) in plain micelles (DOMC/PTX) and FA-micellar PTX (DOMC-FA/PTX) was investigated and compared with that of the free PTX and taxol injection using MCF-7 cells. […] In order to elucidate PTX-loaded micelles induced-apoptosis in MCF-7 cells, Hoechst staining of nuclei was observed after different treatments.
compound,measurement,setting,value
CC(=O)O[C@H]1C(=O)[C@@]2(C)[C@H]([C@H](OC(=O)c3ccccc3)[C@]3(O)C[C@H](OC(=O)[C@H](O)[C@@H](NC(=O)c4ccccc4)c4ccccc4)C(C)=C1C3(C)C)[C@]1(OC(C)=O)CO[C@@H]1C[C@@H]2O [paclitaxel],AUC,"[1]; both sexes, plasma, 75 mg/m2, oral 75 mg/m^2, without delivery system, read-out: mean AUC of orally administered paclitaxel",420 ± 140 ng·h/mL
same,"oral bioavailability (ratio of AUC after oral and after i.v., dose corrected)",[1]; without delivery system,4.3%±1.8
same,"oral bioavailability (ratio of AUC after oral and after IV, dose corrected)",[2],6%±1.6
same,"oral bioavailability (ratio of AUC after oral and after i.v., dose corrected)",[3],6%±1.6
same,growth of MCF-7 cells,MCF-7 cells,inhibited the growth of MCF-7 cells
